Results published in ChEMBL document CHEMBL3885881, “DrugMatrix”.

Species: Rattus norvegicus
Test: DrugMatrix - Regimen: Daily Repeat
Type: toxicity, organism-based, Sprague-Dawley
Design: regimen Daily Repeat, gender Male, age 6-8 weeks
Conditions: in vivo, po, route oral GAVAGE, vehicle 100 % SALINE; for ABSOLUTE BASOPHIL / ABSOLUTE EOSINOPHIL / ABSOLUTE LYMPHOCYTE / ABSOLUTE MONOCYTE / ABSOLUTE SEGMENTED NEUTROPHIL / BASOPHIL / EOSINOPHIL / ERYTHROCYTE COUNT / HEMATOCRIT / HEMOGLOBIN / LEUKOCYTE COUNT / LYMPHOCYTE / MEAN CORPUSCULAR HEMOGLOBIN / MEAN CORPUSCULAR HEMOGLOBIN CONCENTRATION / MEAN CORPUSCULAR VOLUME / MONOCYTE / NEUTROPHIL / NUCLEATED RED BLOOD CELLS / PLATELET COUNT: tissue Blood; for ALANINE AMINOTRANSFERASE / ALBUMIN / ALKALINE PHOSPHATASE / ASPARTATE AMINOTRANSFERASE / BLOOD UREA NITROGEN / CARBON DIOXIDE / CHLORIDE / CHOLESTEROL / CREATINE PHOSPHOKINASE / CREATININE / GLUCOSE / LACTATE DEHYDROGENASE / LIPASE / PHOSPHORUS / POTASSIUM / SODIUM / TOTAL BILIRUBIN / TOTAL PROTEIN / URIC ACID: tissue Plasma
[1] = 0 mg/kg, 72 h, dose level Control, time 3 day
[2] = 0 mg/kg, […], dose level Control, time 7 day
[3] = 10 mg/kg, 72 h, dose level Low, time 3 day

SMILES: O=[As][O-].[Na+] [SODIUM ARSENITE]
- ABSOLUTE BASOPHIL [1]: 0 CELLS/uL
- ABSOLUTE EOSINOPHIL [1]: 66 CELLS/uL
- ABSOLUTE LYMPHOCYTE [1]: 11922.83 CELLS/uL
- ABSOLUTE MONOCYTE [1]: 401.5 CELLS/uL
- ABSOLUTE SEGMENTED NEUTROPHIL [1]: 1526.33 CELLS/uL
- BASOPHIL [1]: 0%
- EOSINOPHIL [1]: 0.5%
- ERYTHROCYTE COUNT [1]: 5.62 x10E6/uL
- HEMATOCRIT [1]: 37.17%
- HEMOGLOBIN [1]: 13.53 G/DL
- LEUKOCYTE COUNT [1]: 13.92 x10E3/uL
- LYMPHOCYTE [1]: 86.17%
- MEAN CORPUSCULAR HEMOGLOBIN [1]: 24.07 pg
- MEAN CORPUSCULAR HEMOGLOBIN CONCENTRATION [1]: 36.42 G/DL
- MEAN CORPUSCULAR VOLUME [1]: 66.1 fL
- MONOCYTE [1]: 3%
- NEUTROPHIL [1]: 10.33%
- NUCLEATED RED BLOOD CELLS [1]: 0 /100WBC
- PLATELET COUNT [1]: 1107 x10E3/uL
- ALANINE AMINOTRANSFERASE [1]: 45.33 u/L
- ALBUMIN [1]: 4.3 G/DL
- ALKALINE PHOSPHATASE [1]: 321.33 u/L
- ASPARTATE AMINOTRANSFERASE [1]: 77.33 u/L
- BLOOD UREA NITROGEN [1]: 14.33 mg/dL
- CARBON DIOXIDE [1]: 32.33 mmol/L
- CHLORIDE [1]: 99.67 MEQ/L
- CHOLESTEROL [1]: 82.33 mg/dL
- CREATINE PHOSPHOKINASE [1]: 205.5 u/L
- CREATININE [1]: 0.19 mg/dL
- GLUCOSE [1]: 150.83 mg/dL
- LACTATE DEHYDROGENASE [1]: 88.17 u/L
- LIPASE [1]: 10.83 u/L
- PHOSPHORUS [1]: 10.9 mg/dL
- POTASSIUM [1]: 5.83 MEQ/L
- SODIUM [1]: 145.15 MEQ/L
- TOTAL BILIRUBIN [1]: 0.12 mg/dL
- TOTAL PROTEIN [1]: 6.22 G/DL
- URIC ACID [1]: 1 mg/dL
- ABSOLUTE BASOPHIL [2]: 0 CELLS/uL
- ABSOLUTE EOSINOPHIL [2]: 22 CELLS/uL
- ABSOLUTE LYMPHOCYTE [2]: 11105.17 CELLS/uL
- ABSOLUTE MONOCYTE [2]: 258.17 CELLS/uL
- ABSOLUTE SEGMENTED NEUTROPHIL [2]: 881.33 CELLS/uL
- BASOPHIL [2]: 0%
- EOSINOPHIL [2]: 0.17%
- ERYTHROCYTE COUNT [2]: 5.29 x10E6/uL
- HEMATOCRIT [2]: 34.03%
- HEMOGLOBIN [2]: 13.67 G/DL
- LEUKOCYTE COUNT [2]: 12.27 x10E3/uL
- LYMPHOCYTE [2]: 90.83%
- MEAN CORPUSCULAR HEMOGLOBIN [2]: 25.9 pg
- MEAN CORPUSCULAR HEMOGLOBIN CONCENTRATION [2]: 40.18 G/DL
- MEAN CORPUSCULAR VOLUME [2]: 64.42 fL
- MONOCYTE [2]: 2.17%
- NEUTROPHIL [2]: 6.83%
- NUCLEATED RED BLOOD CELLS [2]: 0 /100WBC
- PLATELET COUNT [2]: 1159.83 x10E3/uL
- ALANINE AMINOTRANSFERASE [2]: 45.83 u/L
- ALBUMIN [2]: 4.1 G/DL
- ALKALINE PHOSPHATASE [2]: 240 u/L
- ASPARTATE AMINOTRANSFERASE [2]: 88.67 u/L
- BLOOD UREA NITROGEN [2]: 13.67 mg/dL
- CARBON DIOXIDE [2]: 31.83 mmol/L
- CHLORIDE [2]: 96.83 MEQ/L
- CHOLESTEROL [2]: 71.17 mg/dL
- CREATINE PHOSPHOKINASE [2]: 202.5 u/L
- CREATININE [2]: 0.22 mg/dL
- GLUCOSE [2]: 132.67 mg/dL
- LACTATE DEHYDROGENASE [2]: 107.17 u/L
- LIPASE [2]: 10.5 u/L
- PHOSPHORUS [2]: 10.47 mg/dL
- POTASSIUM [2]: 6.23 MEQ/L
- SODIUM [2]: 140.73 MEQ/L
- TOTAL BILIRUBIN [2]: 0.12 mg/dL
- TOTAL PROTEIN [2]: 6.18 G/DL
- URIC ACID [2]: 0.87 mg/dL
- ABSOLUTE BASOPHIL [3]: 0 CELLS/uL
- ABSOLUTE EOSINOPHIL [3]: 54.67 CELLS/uL
- ABSOLUTE LYMPHOCYTE [3]: 10489.83 CELLS/uL
- ABSOLUTE MONOCYTE [3]: 135 CELLS/uL
- ABSOLUTE SEGMENTED NEUTROPHIL [3]: 1470.5 CELLS/uL
- BASOPHIL [3]: 0%
- EOSINOPHIL [3]: 0.5%
- ERYTHROCYTE COUNT [3]: 5.25 x10E6/uL
- HEMATOCRIT [3]: 34.42%
- HEMOGLOBIN [3]: 12.32 G/DL
- LEUKOCYTE COUNT [3]: 12.15 x10E3/uL
- LYMPHOCYTE [3]: 86.33%
- MEAN CORPUSCULAR HEMOGLOBIN [3]: 23.48 pg
- MEAN CORPUSCULAR HEMOGLOBIN CONCENTRATION [3]: 35.82 G/DL
- MEAN CORPUSCULAR VOLUME [3]: 65.58 fL
- MONOCYTE [3]: 1.17%
- NEUTROPHIL [3]: 12%
- NUCLEATED RED BLOOD CELLS [3]: 0.17 /100WBC
- PLATELET COUNT [3]: 1089.17 x10E3/uL
- ALANINE AMINOTRANSFERASE [3]: 43.5 u/L
- ALBUMIN [3]: 4.08 G/DL
- ALKALINE PHOSPHATASE [3]: 226.5 u/L
- ASPARTATE AMINOTRANSFERASE [3]: 76.83 u/L
- BLOOD UREA NITROGEN [3]: 10.5 mg/dL
- CARBON DIOXIDE [3]: 25.83 mmol/L
- CHLORIDE [3]: 100.17 MEQ/L
- CHOLESTEROL [3]: 72 mg/dL
- CREATINE PHOSPHOKINASE [3]: 296.17 u/L
- CREATININE [3]: 0.2 mg/dL
- GLUCOSE [3]: 151.5 mg/dL
- LACTATE DEHYDROGENASE [3]: 177.33 u/L
- LIPASE [3]: 10.33 u/L
- PHOSPHORUS [3]: 11.43 mg/dL
- POTASSIUM [3]: 5.33 MEQ/L
- SODIUM [3]: 142.73 MEQ/L
- TOTAL BILIRUBIN [3]: 0.15 mg/dL
- TOTAL PROTEIN [3]: 5.93 G/DL
- URIC ACID [3]: 1 mg/dL
